Test [1] has as its target T1, human FLT3 protein (FLT3 (WT)) (Homo sapiens, UniProt P36888).
T1 construct: human FLT3 protein (intracellular region, 564 to 993 aa); GST; purchased Carna Biosciences; host or cells: baculovirus expression system
T1 sequence (P36888 564-993): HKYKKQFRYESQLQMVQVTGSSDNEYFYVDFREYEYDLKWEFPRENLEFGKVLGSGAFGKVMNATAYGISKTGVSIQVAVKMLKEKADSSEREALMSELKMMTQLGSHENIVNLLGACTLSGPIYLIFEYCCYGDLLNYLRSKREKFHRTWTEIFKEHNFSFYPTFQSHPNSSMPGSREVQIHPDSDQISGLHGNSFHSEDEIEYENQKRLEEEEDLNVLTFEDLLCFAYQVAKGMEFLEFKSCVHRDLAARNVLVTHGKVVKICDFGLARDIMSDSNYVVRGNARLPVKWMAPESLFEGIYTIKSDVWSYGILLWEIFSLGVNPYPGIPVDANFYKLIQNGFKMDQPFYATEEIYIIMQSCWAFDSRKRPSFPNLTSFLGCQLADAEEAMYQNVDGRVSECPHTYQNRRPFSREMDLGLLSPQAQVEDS
The test can be described thus: FLT3 inhibition test (FLT3 enzyme inhibition, time-resolved fluorescence of substrate peptide phosphorylation). The test is classed as biochemical. The note with it: FLT3 (WT); read-out: FLT3 (WT) enzyme inhibition activity. The method, boiled down:
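Wild-type human FLT3 (1.2 μg) pre-incubated with compound 15 min at 25° C in 100 mM HEPES pH 7.5, 10 mM MgCl2, 25 mM NaCl, 1 mM DTT. Reaction started with substrate peptide and ATP (final 50 μM), run 30 min at 25° C; phosphorylation read by time-resolved fluorescence.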

For test [2], the system named is MV4-11 cells. Kind of test: Leukemia cell proliferation inhibition test (ATPlite), MV4-11. As to conditions: Homo sapiens, MV4-11, MV4-11 cell; read-out: MV4-11 cell proliferation inhibition effect. Format: cell-based. In a few lines:
(§1)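 Proliferation inhibition is quantified from total cellular ATP, measured by luciferase luminescence, after cells grow with compound for 72 hours. The GI50 is the concentration giving half the signal of the 0.1% DMSO control, fitted to a sigmoid curve from duplicate points.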
(ATP-based viability assays read luminescence as a measure of living cells.)

In test [3] the test system is Molm-13 cells. The test can be described thus: Leukemia cell proliferation inhibition test (ATPlite), Molm-13. Format: cell-based. As to conditions: Homo sapiens, MOLM-13, MOLM13 cell; read-out: MOLM13 cell proliferation inhibition effect. In a few lines: as §1

Among the data in patent US9145415B2, “Nitrogen-containing heterocyclic compound or salt thereof” (FUJIFILM Corporation, priority 2012, dated 2015) are IC50 values, retold here.

`COCCNc1nc(Nc2cccc(C#N)c2)ncc1C#C[C@@H]1CCC[C@H](NC(=O)[C@H](C)N(C)C(=O)/C=C/CN(C)C)C1` [Compound 22-38]: the IC50 in test [1], in test [2] and in test [3] was below 0.01 µM in each case.
`COCCNc1nc(Nc2ccc(C#N)cc2)ncc1C#C[C@@H]1CCC[C@H](NC(=O)[C@H](C)N(C)C(=O)/C=C/CN(C)C)C1` [Compound 22-39]: the IC50 in test [1], in test [2] and in test [3] was below 0.01 µM each time.
On to `CCCNc1nc(Nc2cnc3c(cnn3CCOC)c2)ncc1C#CCCCNC(=O)[C@H](C)N(C)C(=O)/C=C/CN(C)C` [Compound 22-40], for which the IC50 in test [1], in test [2] and in test [3] was below 0.01 µM each time.
Take `CCCNc1nc(Nc2cnc3c(c2)c(C)nn3CCOC)ncc1C#CCCCNC(=O)[C@H](C)N(C)C(=O)/C=C/CN(C)C` [Compound 22-41]: the IC50 in test [1], in test [2] and in test [3] was below 0.01 µM throughout.
With `CCCNc1nc(Nc2ccc3c(OC)nn(C)c3c2)ncc1C#CCCCNC(=O)[C@@H]1CCCN1C(=O)/C=C/CN(C)C` [Compound 22-42], the IC50 in test [1], in test [2] and in test [3] was below 0.01 µM throughout.
Take `CCCNc1nc(Nc2cnc3c(cnn3C)c2)ncc1C#CCCCNC(=O)[C@@H]1CCCN1C(=O)/C=C/CN(C)C` [Compound 22-43, (S,E)-1-(4-(Dimethylamino)-2-butenoyl)-N-(5-(2-((1-methyl-1H-pyrazolo[3,4-b]pyridin-5-yl)amino)-4-(propylamino)pyrimidin-5-yl)-4-pentyn-1-yl)pyrrolidine-2-carboxamide]: the IC50 in test [1], in test [2] and in test [3] was below 0.01 µM in each case.
For `CCCNc1nc(Nc2cnc3c(cnn3CCOC)c2)ncc1C#CCCCNC(=O)[C@@H]1CCCN1C(=O)/C=C/CN(C)C` [Compound 22-44, (S,E)-1-(4-(Dimethylamino)-2-butenoyl)-N-(5-(2-((1-(2-methoxyethyl)-1H-pyrazolo[3,4-b]pyridin-5-yl)amino)-4-(propylamino)pyrimidin-5-yl)-4-pentyn-1-yl)pyrrolidine-2-carboxamide], the IC50 in test [1], in test [2] and in test [3] was below 0.01 µM throughout.
With `CCCNc1nc(Nc2cnc3c(c2)c(C)nn3C)ncc1C#CCCCNC(=O)[C@@H]1CCCN1C(=O)/C=C/CN(C)C` [Compound 22-45], the IC50 in test [1], in test [2] and in test [3] was below 0.01 µM throughout.
In the case of `CCCNc1nc(Nc2cnc3c(c2)c(C)nn3CCOC)ncc1C#CCCCNC(=O)[C@@H]1CCCN1C(=O)/C=C/CN(C)C` [Compound 22-46], the IC50 in test [1], in test [2] and in test [3] was below 0.01 µM each time.
As to `CCCNc1nc(Nc2cnc3c(c2)c(OC)nn3C)ncc1C#CCCCNC(=O)[C@@H]1CCCN1C(=O)/C=C/CN(C)C` [Compound 22-47], the IC50 in test [1], in test [2] and in test [3] was below 0.01 µM throughout.
As to `CCCNc1nc(Nc2ccc3c(OC)nn(COCC)c3c2)ncc1C#CCCCNC(=O)[C@H](C)N(C)C(=O)/C=C/CN(C)C` [Compound 22-50], the IC50 in test [1] is below 0.01 µM; in test [2], 0.01 to 0.1 µM; in test [3], below 0.01 µM.
Turning to `CCCNc1nc(Nc2cnc3[nH]nc(C)c3c2)ncc1C#CCCCNC(=O)[C@H](C)N(C)C(=O)/C=C/CN(C)C` [Compound 22-51, (S,E)-4-(Dimethylamino)-N-methyl-N-(1-((5-(2-((3-methyl-1H-pyrazolo[3,4-b]pyridin-5-yl)amino)-4-(propylamino)pyrimidin-5-yl)-4-pentyn-1-yl)amino)-1-oxopropan-2-yl)-2-butenamide], the IC50 in test [1], in test [2] and in test [3] was below 0.01 µM in each case.
On to `CCCNc1nc(Nc2ccc3c(OC)nn(CCOC)c3c2)ncc1C#CCCCNC(=O)[C@@H]1CCCN1C(=O)/C=C/CN(C)C` [Compound 22-55], for which the IC50 in test [1], in test [2] and in test [3] was below 0.01 µM in each case.
Consider `CCCNc1nc(Nc2cnc3[nH]nc(C)c3c2)ncc1C#CCCCNC(=O)[C@@H]1CCCN1C(=O)/C=C/CN(C)C` [Compound 22-56, (S,E)-1-(4-(Dimethylamino)-2-butenoyl)-N-(5-(2-((3-methyl-1H-pyrazolo[3,4-b]pyridin-5-yl)amino)-4-(propylamino)pyrimidin-5-yl)-4-pentyn-1-yl)pyrrolidine-2-carboxamide], for which the IC50 in test [1], in test [2] and in test [3] was below 0.01 µM throughout.
In the case of `CCCNc1nc(Nc2cnc3[nH]nc(OC)c3c2)ncc1C#CCCCNC(=O)[C@@H]1CCCN1C(=O)/C=C/CN(C)C` [Compound 22-57, (S,E)-1-(4-(Dimethylamino)-2-butenoyl)-N-(5-(2-((3-methoxy-1H-pyrazolo[3,4-b]pyridin-5-yl)amino)-4-(propylamino)pyrimidin-5-yl)-4-pentyn-1-yl)pyrrolidine-2-carboxamide], the IC50 in test [1], in test [2] and in test [3] was below 0.01 µM in each case.
For `CCCNc1nc(Nc2ccc3c(F)nn(C)c3c2)ncc1C#CCCCNC(=O)[C@H](C)N(C)C(=O)/C=C/CN(C)C` [Compound 22-58], the IC50 in test [1], in test [2] and in test [3] was below 0.01 µM throughout.
Consider `CCCNc1nc(Nc2ccc3c(F)nn(C)c3c2)ncc1C#CCCCNC(=O)[C@@H]1CCCN1C(=O)/C=C/CN(C)C` [Compound 22-59], for which the IC50 in test [1], in test [2] and in test [3] was below 0.01 µM each time.
As for `CCCNc1nc(Nc2ccc3c(c2)c(F)nn3C)ncc1C#CCCCNC(=O)[C@H](C)N(C)C(=O)/C=C/CN(C)C` [Compound 22-60], the IC50 in test [1], in test [2] and in test [3] was below 0.01 µM in each case.
`CCCNc1nc(Nc2ccc3c(c2)c(F)nn3C)ncc1C#CCCCNC(=O)[C@@H]1CCCN1C(=O)/C=C/CN(C)C` [Compound 22-61]: the IC50 in test [1], in test [2] and in test [3] was below 0.01 µM each time.
For `CCCNc1nc(Nc2ccc3[nH]ncc3c2)ncc1C#CCCCNC(=O)[C@@H]1CCCN1C(=O)/C=C/CN(C)C` [Compound 22-62], the IC50 in test [1], in test [2] and in test [3] was below 0.01 µM in each case.
For the compound `CCCNc1nc(Nc2ccc3cn[nH]c3c2)ncc1C#CCCCNC(=O)[C@@H]1CCCN1C(=O)/C=C/CN(C)C` [Compound 22-63], the IC50 in test [1], in test [2] and in test [3] was below 0.01 µM throughout.
Take `CCCNc1nc(Nc2ccc3[nH]nc(OC)c3c2)ncc1C#CCCCNC(=O)[C@H](C)N(C)C(=O)/C=C/CN(C)C` [Compound 22-64]: the IC50 in test [1], in test [2] and in test [3] was below 0.01 µM throughout.
Regarding `CCCNc1nc(Nc2ccc3c(OC)n[nH]c3c2)ncc1C#CCCCNC(=O)[C@H](C)N(C)C(=O)/C=C/CN(C)C` [Compound 22-65], the IC50 in test [1], in test [2] and in test [3] was below 0.01 µM each time.
For `CCCNc1nc(Nc2cnc3[nH]nc(OC)c3c2)ncc1C#CCCCNC(=O)[C@H](C)N(C)C(=O)/C=C/CN(C)C` [Compound 22-66], the IC50 in test [1], in test [2] and in test [3] was below 0.01 µM each time.
`CCCNc1nc(Nc2ccc3[nH]nc(OC)c3c2)ncc1C#CCCCNC(=O)[C@@H]1CCCN1C(=O)/C=C/CN(C)C` [Compound 22-67]: the IC50 in test [1], in test [2] and in test [3] was below 0.01 µM each time.
For the compound `CCCNc1nc(Nc2ccc3c(OC)n[nH]c3c2)ncc1C#CCCCNC(=O)[C@@H]1CCCN1C(=O)/C=C/CN(C)C` [Compound 22-68], the IC50 in test [1], in test [2] and in test [3] was below 0.01 µM throughout.
